The values that follow come from US9879008B2, “2,3,4,6-tetra-substituted benzene-1,5-diamine derivatives, preparation method therefor and medicinal use thereof” (SHANGHAI HAIYAN PHARMACEUTICAL TECHNOLOGY CO., LTD., priority 2014, dated 2018).

Each structure is given as a SMILES string. Bounds are passed on as bounds.

One assay has as its system H1975 cells. The assay is described as follows: ELISA assay for cell activity of EGFR T790M inhibitor, H1975 cells. The settings on record: for Selective inhibitory activities against cell [IC50(A431 cell)/IC50(H1975 cell)]: ELISA, ratio of cell IC50 values; for IC50: Homo sapiens, NCI-H1975, 1 h, read-out: H1975 cell (IC50/nM). For orientation: ELISA stands for enzyme-linked immunosorbent assay.

For the next assay, the target named is T1, wild-type EGFR kinase (Homo sapiens, UniProt P00533).
T1 construct: purchased Invitrogen PV3872
T1 sequence (P00533 25-1210): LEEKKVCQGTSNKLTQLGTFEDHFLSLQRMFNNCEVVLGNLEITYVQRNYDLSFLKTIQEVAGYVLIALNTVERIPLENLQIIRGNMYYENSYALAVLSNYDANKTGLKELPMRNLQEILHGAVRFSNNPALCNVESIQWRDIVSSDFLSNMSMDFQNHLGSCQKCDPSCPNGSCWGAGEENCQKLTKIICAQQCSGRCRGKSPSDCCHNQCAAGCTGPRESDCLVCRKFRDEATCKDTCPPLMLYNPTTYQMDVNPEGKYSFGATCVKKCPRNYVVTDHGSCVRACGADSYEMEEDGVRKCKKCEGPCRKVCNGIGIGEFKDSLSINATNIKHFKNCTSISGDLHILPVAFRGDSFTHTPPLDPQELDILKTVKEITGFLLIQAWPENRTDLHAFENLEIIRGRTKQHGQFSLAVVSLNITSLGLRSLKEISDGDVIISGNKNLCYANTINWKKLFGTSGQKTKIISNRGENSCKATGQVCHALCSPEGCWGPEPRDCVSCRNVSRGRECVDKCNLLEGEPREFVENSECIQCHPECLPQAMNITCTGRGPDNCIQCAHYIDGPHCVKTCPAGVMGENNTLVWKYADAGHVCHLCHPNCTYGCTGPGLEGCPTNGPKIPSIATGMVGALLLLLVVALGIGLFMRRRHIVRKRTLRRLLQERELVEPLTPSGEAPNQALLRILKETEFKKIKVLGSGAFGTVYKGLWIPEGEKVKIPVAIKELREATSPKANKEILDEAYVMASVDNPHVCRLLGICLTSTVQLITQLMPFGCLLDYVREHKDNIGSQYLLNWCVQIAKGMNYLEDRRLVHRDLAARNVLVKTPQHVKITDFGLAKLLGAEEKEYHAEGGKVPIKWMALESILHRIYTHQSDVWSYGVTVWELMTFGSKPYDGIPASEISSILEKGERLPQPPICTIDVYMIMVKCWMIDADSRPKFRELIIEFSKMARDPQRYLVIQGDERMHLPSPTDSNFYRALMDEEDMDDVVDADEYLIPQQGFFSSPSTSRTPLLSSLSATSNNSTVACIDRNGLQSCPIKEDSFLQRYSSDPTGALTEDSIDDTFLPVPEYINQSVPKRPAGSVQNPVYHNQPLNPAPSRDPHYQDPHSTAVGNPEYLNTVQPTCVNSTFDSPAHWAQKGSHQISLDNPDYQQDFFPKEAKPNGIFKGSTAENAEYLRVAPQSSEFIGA
The experiment in a line: z-lyte inhibition test against wild-type EGFR kinase.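 Further: reaction volume 10 µL holding 0.8 ng/µL enzyme and 2 µM Tyr04 substrate, with DMSO at 2% once compounds are present.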 Format: biochemical. The settings on record: 10 μM ATP, read-out: EGFR WT (IC50/nM).

The subject of the next assay is A431 cell. The assay is described as follows: MTT cytostatic activity, A431 cell. Conditions: Homo sapiens, A-431; MTT, 72 h; read-out: A431 cell (IC50/nM). The assay is classed as cell-based.
The subject of another assay is H1975 cell. The experiment in a line: MTT cytostatic activity, H1975 cell.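 On all read-outs here: cells in 96-well plates exposed to compound for 72 h, then given MTT for a further 4 h at 37 °C under 5% CO2.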 The assay is classed as cell-based. The settings on record: MTT; for IC50: Homo sapiens, NCI-H1975, 72 h, read-out: H1975 cell (IC50/nM); for Selective inhibitory activity against cells [IC50(A431 cell)/IC50(H1975 cell)]: ratio of cell IC50 values.
In another assay the test system is NIH3T3 cell. The assay is described as follows: MTT cytotoxicity against NIH3T3 cells. Format: cell-based. The settings on record: Mus musculus, NIH3T3; cytotoxicity, MTT, 72 h; read-out: MTT assay against NIH3T3 cell (IC50/nM). In general terms: Tetrazolium assays rely on reduction of a dye to a coloured formazan, in cell work by metabolically active cells.
In a further assay the test system is A431 cells. The assay is described as follows: ELISA assay for cell activity, EGF-treated A431 cells.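 Further: Serum-starved A431 cells, ELISA on lysates read as OD450 minus OD570, inhibition scaled between EGF-stimulated wells (0%) and unstimulated cell control (100%), DMSO 0.5% final.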 The settings on record: Homo sapiens, A-431, compound 1 h, then EGF 45 min. The assay is classed as cell-based.

For the compound `C=CC(=O)Nc1cc(Nc2ncc(Cl)c(O[C@@H]3CCCN(S(C)(=O)=O)C3)n2)c(OC)cc1N(C)CCN(C)C` [Compound J-40, (R)—N-(5-(5-chloro-4-(1-(methylsulfonyl)piperidine-3-oxy)pyrimidine-2-amino)-2-((2-(dimethylamino)ethyl)(methyl)amino)-4-methoxyphenyl)acrylamide], in the assay with H1975 cells, the “Selective inhibitory activities against cell [IC50(A431 cell)/IC50(H1975 cell)]” value (“Selective inhibitory activities” below) is 7.1. The IC50 in the assay with H1975 cells is 95 nM; at wild-type EGFR kinase, 47 nM; in the assay on A431 cell, 2950 nM; in the assay with H1975 cell, 50 nM; in the assay on NIH3T3 cell, above 10000 nM; in the assay with A431 cells, 670 nM. Also, the “Selective inhibitory activity against cells [IC50(A431 cell)/IC50(H1975 cell)]” value (from here on “Selective inhibitory activity”) in the assay on H1975 cell was 59.

For the compound `C=CC(=O)Nc1cc(Nc2ncc(Cl)c(O[C@H]3CCN(S(C)(=O)=O)C3)n2)c(OC)cc1N1CCC(N(C)C)CC1` [Compound J-46], the “Selective inhibitory activities” value with H1975 cells came out at 64. In addition, the IC50 is 13 nM with H1975 cells; 49 nM on wild-type EGFR kinase; 2920 nM in the assay on A431 cell; 17 nM in the assay on H1975 cell; above 10000 nM in the assay on NIH3T3 cell; 832 nM in the assay on A431 cells. Besides, the “Selective inhibitory activity” value in the assay on H1975 cell came out at 171.8.

Turning to `C=CC(=O)Nc1cc(Nc2ncc(Cl)c(OC3CCCN(S(C)(=O)=O)CC3)n2)c(OC)cc1N(C)CCN(C)C` (stereo not drawn) [Compound J-1, N-(5-(5-chloro-4-(1-(methylsulfonyl)azacycloheptane-4-oxy)pyrimidine-2-amino)-2-((2-(dimethylamino)ethyl)(methyl)amino)-4-methoxylphenyl)acrylamide], the “Selective inhibitory activities” value in the assay on H1975 cells turned out to be 29.5. Further, the IC50 in the assay on H1975 cells was 13 nM; on wild-type EGFR kinase it was 20 nM; with A431 cell, 1140 nM; in the assay on H1975 cell, 22 nM; in the assay on NIH3T3 cell it was above 10000 nM; with A431 cells, 383 nM. In addition, in the assay on H1975 cell, the “Selective inhibitory activity” value was 52.

As to `C=CC(=O)Nc1cc(Nc2ncc(C(F)(F)F)c(OC3CN(S(C)(=O)=O)C3)n2)c(OC)cc1N1CCC(N(C)C)CC1` [Compound J-31], in the assay on H1975 cells, the “Selective inhibitory activities” value came to 84. The IC50 in the assay on H1975 cells is 5 nM; at wild-type EGFR kinase, 27 nM; in the assay with A431 cell, 1720 nM; with H1975 cell, 4 nM; in the assay on NIH3T3 cell, above 3000 nM; in the assay on A431 cells, 419 nM. Besides, the “Selective inhibitory activity” value in the assay with H1975 cell is reported as 429.

As for `C=CC(=O)Nc1cc(Nc2ncc(Cl)c(O[C@@H]3CCN(C(C)=O)C3)n2)c(OC)cc1N1CCC(N(C)C)CC1` [Compound J-47], the “Selective inhibitory activities” value with H1975 cells is on record as 28.2. The IC50 is 97 nM with H1975 cells; 227 nM at wild-type EGFR kinase; 7380 nM in the assay on A431 cell; 46 nM with H1975 cell; above 10000 nM in the assay on NIH3T3 cell; 2740 nM with A431 cells. In addition, in the assay with H1975 cell, the “Selective inhibitory activity” value came to 160.5.

As to `C=CC(=O)Nc1cc(Nc2nccc(OC3CN(c4cccnc4)C3)n2)c(OC)cc1N(C)CCN(C)C` [Compound J-17], the “Selective inhibitory activities” value in the assay on H1975 cells was 1.2. Also, the IC50 is 129 nM in the assay on H1975 cells; 8 nM at wild-type EGFR kinase; 1880 nM with A431 cell; 121 nM in the assay on H1975 cell; above 10000 nM with NIH3T3 cell; 155 nM in the assay on A431 cells. Moreover, the “Selective inhibitory activity” value in the assay on H1975 cell is 15.5.

`C=CC(=O)Nc1cc(Nc2ncc(F)c(OC3CN(S(C)(=O)=O)C3)n2)c(OC)cc1N1CCC(N(C)C)CC1` [Compound J-29]: the “Selective inhibitory activities” value in the assay on H1975 cells is reported as 7. Also, the IC50 in the assay with H1975 cells was 23 nM; at wild-type EGFR kinase it was 6 nM; in the assay with A431 cell, 1100 nM; in the assay on H1975 cell it was 17 nM; in the assay on NIH3T3 cell, above 10000 nM; in the assay on A431 cells it was 156 nM. In the assay with H1975 cell, the “Selective inhibitory activity” value is listed as 64.5.

Consider `C=CC(=O)Nc1cc(Nc2ncc(Cl)c(OC3CN(S(C)(=O)=O)C3)n2)c(OC)cc1OCCN(C)C` [Compound J-71], for which the “Selective inhibitory activities” value in the assay with H1975 cells is given as 17. The IC50 in the assay on H1975 cells is 32 nM; on wild-type EGFR kinase it was 23 nM; in the assay on A431 cell, 1800 nM; in the assay on H1975 cell, 21 nM; with NIH3T3 cell, above 10000 nM; with A431 cells, 539 nM. Also, the “Selective inhibitory activity” value in the assay on H1975 cell turned out to be 86.

Take `C=CC(=O)Nc1cc(Nc2ncc(Cl)c(OC3CN(S(C)(=O)=O)C3)n2)c(OC)cc1N(C)CCN(C)C` [Compound J-11, N-(5-(5-chloro-4-(1-(methylsulfonyl)azetidine-3-oxy)pyrimidine-2amino)-2-((2-(dimethylamino)ethyl)(methyl)amino)-4-methoxyphenyl)acrylamide]: the “Selective inhibitory activities” value in the assay with H1975 cells is 10. For the same compound, the IC50 in the assay on H1975 cells is 38 nM; on wild-type EGFR kinase it was 12 nM; in the assay with A431 cell, 1580 nM; with H1975 cell, 14 nM; with NIH3T3 cell, above 10000 nM; in the assay with A431 cells it was 379 nM. Also, the “Selective inhibitory activity” value with H1975 cell is 113.

In the case of `C=CC(=O)Nc1cc(Nc2ncc(Cl)c(OC3CCCN(S(C)(=O)=O)CC3)n2)c(OC)cc1N1CCC(N(C)C)CC1` (stereo not drawn) [Compound J-37], the “Selective inhibitory activities” value with H1975 cells is listed as 26. Besides, the IC50 is 36 nM in the assay on H1975 cells; 22 nM at wild-type EGFR kinase; 2140 nM in the assay on A431 cell; 27 nM in the assay on H1975 cell; above 10000 nM with NIH3T3 cell; 919 nM with A431 cells. In the assay with H1975 cell, the “Selective inhibitory activity” value was 79.4.

In the case of `C=CC(=O)Nc1cc(Nc2ncc(Cl)c(OC3CN(S(C)(=O)=O)C3)n2)c(OC)cc1N1CCN(C)CC1` [Compound J-70, N-(5-(5-chloro-4-(1-(methylsulfonyl)azetidine-3-oxy)pyrimidine-2-amino)-4-methoxy-2-(4-methylpiperazine-1-yl)phenyl)acrylamide], the “Selective inhibitory activities” value in the assay on H1975 cells was 35.4. In addition, the IC50 in the assay on H1975 cells is 13 nM; on wild-type EGFR kinase it was 14 nM; in the assay with A431 cell, 971 nM; in the assay with H1975 cell, 6 nM; with NIH3T3 cell, above 10000 nM; in the assay on A431 cells, 460 nM. Further, the “Selective inhibitory activity” value in the assay on H1975 cell is 162.

With `C=CC(=O)Nc1cc(Nc2ncc(Cl)c(NC3CN(S(C)(=O)=O)C3)n2)c(OC)cc1N1CCC(N(C)C)CC1` [Compound J-60, N-(5-(5-chloro-4-(1-(methylsulfonyl)azetidine-3-amino)pyrimidine-2-amino)-2-(4-(dimethylamino)piperidine-1-yl)-4-methoxyphenyl)acrylamide], the “Selective inhibitory activities” value in the assay with H1975 cells turned out to be 9.1. Also, the IC50 in the assay with H1975 cells is 30 nM; on wild-type EGFR kinase it was 6 nM; with A431 cell, 1340 nM; in the assay with H1975 cell, 24 nM; with NIH3T3 cell it was above 10000 nM; in the assay with A431 cells it was 272 nM. The “Selective inhibitory activity” value in the assay on H1975 cell was determined as 56.
